Source: patent publication US9999656B2, “Treatment of short bowel syndrome patients with colon-in-continuity” (Shire-NPS Pharmaceuticals, Inc., priority 2004, dated 2018)

System: patients with short bowel syndrome (SBS)
Assay: Safety monitoring (adverse events, laboratory, vital signs, ECGs, antibodies)
From the text: During each inpatient period, patients underwent 72-hour nutrient balance and D-Xylose absorption studies, and a proximal or distal endoscopy to ascertain the condition of the intestinal mucosa and obtain biopsy samples. In jejunostomy patients, biopsies were obtained through the jejunostomy stoma or by upper gastrointestinal endoscopy. In patients with colon-in-continuity, colo-rectal biopsies were obtained. Teduglutide treatment began on Day 1 (immediately after the baseline period) and continued once-daily for 21 days. […] Patients were monitored for safety (adverse events, physical exams, vital signs, ECGs, laboratory results, and injection site examinations) during the inpatient periods and during outpatient visits on days 7 and 14.

CC[C@H](C)[C@H](NC(=O)[C@H](Cc1ccccc1)NC(=O)[C@H](CC(=O)O)NC(=O)[C@H](CCCNC(=N)N)NC(=O)[C@H](C)NC(=O)[C@H](C)NC(=O)[C@H](CC(C)C)NC(=O)[C@H](CC(N)=O)NC(=O)[C@H](CC(=O)O)NC(=O)[C@H](CC(C)C)NC(=O)[C@@H](NC(=O)[C@@H](NC(=O)[C@H](CC(N)=O)NC(=O)[C@H](CCSC)NC(=O)[C@H](CCC(=O)O)NC(=O)[C@H](CC(=O)O)NC(=O)[C@H](CO)NC(=O)[C@H](Cc1ccccc1)NC(=O)[C@H](CO)NC(=O)CNC(=O)[C@H](CC(=O)O)NC(=O)CNC(=O)[C@@H](N)Cc1c[nH]cn1)[C@@H](C)O)[C@@H](C)CC)C(=O)N[C@@H](CC(N)=O)C(=O)N[C@@H](Cc1c[nH]c2ccccc12)C(=O)N[C@@H](CC(C)C)C(=O)N[C@H](C(=O)N[C@@H](CCC(N)=O)C(=O)N[C@H](C(=O)N[C@@H](CCCCN)C(=O)N[C@H](C(=O)N[C@H](C(=O)N[C@@H](CC(=O)O)C(=O)O)[C@@H](C)O)[C@@H](C)CC)[C@@H](C)O)[C@@H](C)CC [teduglutide, [Gly2]hGLP-2]
antibodies to teduglutide (SBS patients, 21 days dosing): No antibodies to teduglutide were detected | deaths and withdrawals due to adverse events (all patients): no deaths and no withdrawals due to adverse events | injection site reactions (in vivo): Three patients had minor injection site reactions | laboratory values (in vivo): No clinically significant abnormal laboratory values | most common AEs (in vivo): edema of the lower limbs, and localized swelling of the jejunostomy nipple | relation of serious AEs (catheter-related infection or complication, two patients) to drug (in vivo): None of these were judged to be related to teduglutide | vital signs or ECGs (in vivo): No safety concerns were raised
